In patent publication US6153611A, “Piperazinyl-cyclohexanes and cyclohexenes” (Bristol-Myers Squibb Company, priority 1993, dated 2000) one finds responders and IC50 data, which are given here for twelve molecules.

Like-named read-outs stand apart in the source and are kept apart here.

For experiment [1], the system named is brain ischemia. The experiment is described as follows: Anoxic Nitrogen Test in Rats. To be noted: Rattus norvegicus, sc, subcutaneously, 2 hr survival, read-out: Nitrogen Anoxia % Survival. The experiment is classed as in vivo, male Sprague-Dawley rats. The source says:
Most specifically, administration of the compounds of Formula I results in protection against hypoxia-induced death in an anoxic nitrogen test in rats (Example 66). The test identifies the neuro-protective effects of substances against lethal brain damages produced by a lack of oxygen consumption (anoxia). In this test procedure, control animals exposed for one minute to a pure nitrogen atmosphere will expire because of respiratory failure caused by irreversible damage to the brain respiratory center.
Anoxic Nitrogen Test in Rats
The animals utilized are male Sprague-Dawley rats (200-400 grams) housed four animals per cage in a normal controlled environment with unlimited access to food and water. Usually there are 8 animals per dose, however, […] can be employed to obtain an initial impression of a compound's activity. Animals are parenterally or orally administered the vehicle or test compound 30 minutes before the anoxic insult. The anoxic episode consists of placing up to 8 animals in the sealed test chamber (10" l×10" w×6" h) continuously flushed with pure N2 (4.5 grade) at a flow rate of 5 SCFM for 1 min. Animals are then promptly removed to normal atmosphere and observed for the 2 hour period. Typically, animals become disoriented within 15 sec after which they remain motionless.
Even though the heart is still beating after the N2 exposure, all control animals fail to gasp when removed from the chamber and usually expire within 3 minutes. Drug treated animals, however, still gasp or start gasping after being removed, which is a good indication that the animals will survive the N2 exposure [see Wauquire, A., et al: Arch. Int. Pharmacodyn., 249, 330-334 (1981); Wauquier, A., et al: Drug Dev. Res., 8, 373-380 (1986)]. Results are recorded as:
(Number of animals surviving (2 hr))/(Number of animals tested)×100%
The anoxic nitrogen test is an in vivo model of brain ischemia in rats [see: Wauquire, A., et al: Arch. Int. Pharmacodyn., 249, 330-334 (1981); Wauquier, A., et al: Drug Dev. Res., 8, 373-380 (1986)]. Compounds of the present invention are active in this in vivo model of brain ischemia when given subcutaneously in the doses indicated in Table 2, thus providing additional evidence that the present compounds will be useful in the treatment of brain ischemia.

The target in experiment [2] is T1, sigma receptor (Cavia porcellus, UniProt Q60492).
T1 construct: from tissue
T1 sequence (Q60492 whole entry): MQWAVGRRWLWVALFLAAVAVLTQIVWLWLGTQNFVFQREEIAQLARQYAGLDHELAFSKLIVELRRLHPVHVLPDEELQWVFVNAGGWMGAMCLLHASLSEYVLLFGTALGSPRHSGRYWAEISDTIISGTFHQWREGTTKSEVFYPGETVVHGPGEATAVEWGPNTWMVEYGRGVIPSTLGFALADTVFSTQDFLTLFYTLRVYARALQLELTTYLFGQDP
As to the kind of experiment: Sigma binding (method of Tam and Cook). The procedure: In vitro IC50 test values for binding to the sigma receptor were determined for representative compounds of Formula I by the method of Tam and Cook [see: Tam, S. W., and Cook, L: Proc. Natl. Acad. Sci. USA 81, 5618-5621 (1984)] with only minor modifications. Test IC50 values lower than 100 nM are considered to reflect activity at the sigma receptor.

The target of experiment [3] is T2, Dopamine D2 (Rattus norvegicus, UniProt P61169).
T2 construct: The corpus striatum was crudely dissected and frozen on dry ice; from tissue; host or cells: rat corpus striatum membranes (male Sprague-Dawley rats, Charles River)
T2 sequence (P61169 whole entry): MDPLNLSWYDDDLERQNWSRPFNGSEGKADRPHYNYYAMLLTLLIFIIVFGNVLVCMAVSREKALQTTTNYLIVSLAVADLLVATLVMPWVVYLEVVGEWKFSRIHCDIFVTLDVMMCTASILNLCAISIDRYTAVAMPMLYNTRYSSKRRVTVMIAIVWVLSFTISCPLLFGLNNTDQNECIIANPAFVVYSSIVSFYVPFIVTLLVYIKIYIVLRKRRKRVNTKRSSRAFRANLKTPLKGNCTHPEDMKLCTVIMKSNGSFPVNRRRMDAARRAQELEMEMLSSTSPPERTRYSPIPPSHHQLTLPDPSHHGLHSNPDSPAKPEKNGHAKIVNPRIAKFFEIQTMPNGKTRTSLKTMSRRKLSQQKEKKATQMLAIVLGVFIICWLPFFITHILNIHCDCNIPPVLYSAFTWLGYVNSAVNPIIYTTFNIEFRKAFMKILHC
The experiment is described as follows: Dopamine D2 Binding Assay ([3H]Spiperone, corpus striatum membranes). On the set-up: species or system male Sprague-Dawley rats. The following applies: [3H]Spiperone 0.1 nM, 37° C., 15 min. How it is done: Activity at D2 sites is measured using the screening process set out in Example 67.
Dopamine D2 Binding Assay
Dopamine D2 affinity was determined according to the procedures of Burt, Creese and Snyder [Molecular Pharmacology 12,800 (1976); Science 196, 326 (1977); Science 192, 481 (1976)]. Briefly, male Sprague-Dawley rats (Charles River) were decapitated, brains rapidly removed and chilled in ice-cold 50 mM Hepes/KOH buffer (pH 7.4, 20° C.). The corpus striatum was crudely dissected and frozen on dry ice. Tissue was pooled and stored at -80° C. until use. On the day of assay, tissue was thawed in 20 ml ice-cold Hepes/KOH buffer, and homogenized with a polytron for 15 sec at 18,000 rpm. The homogenate was centrifuged (39,000×g, 10 min, at 4° C.). The supernatant was discarded and the pellet rehomogenized in ice-cold Hepes/KOH buffer and recentrifuged as described previously. The supernatant was again discarded and the pellet resuspended (1:100) in ice-cold Hepes/KOH buffer (pH 7.4, 20° C., containing 120 mM NaCl, 5 mM KCl, 1 mM MgCl2, 0.1% (w/v) ascorbic acid, and 10 μM pargylline, and stored on ice until assay. The binding assay (1 ml total volume) was performed in duplicate and initiated by the addition of 800 μl membrane homogenate to tubes containing 100 μl [^3 H]Spiperone (0.1 nM final concentration), and 100 μl competitor, buffer, or butaclamol, which was used to define the non-specific binding. The assay was incubated at 37° C. for 15 min, afterwhich the assay was terminated by rapid filtration.
In vitro IC50 test values for binding to the D2 receptor were determined for representative compounds of Formula I by the method of Burt, Creese, and Snyder, Molecular Pharmacology 12, 800 (1976); Creese, Burt, and Snyder, Science 196, 326 (1977); and Creese, Burt and Snyder, Science 192, 481 (1976). Test IC50 values greater than 1,000 nM are considered to reflect inactivity at the D2 receptor, indicating the risk of extrapyramidal side effects is small.

One may read the IC50 as the concentration needed to halve the response being measured. The low end stands for greater potency in that assay, the high end for weaker potency in that assay.

Take `Fc1ccc([C@H]2CC[C@H](N3CCN(Cc4ccccc4)CC3)CC2)c2ccccc12` [Example 62-trans, Cis and trans 1-[4-(4-fluoro-1-naphthalenyl)-1-cyclohexyl]-4-(phenylmethyl)piperazine]: the responders at 40 mg/kg in experiment [1] worked out at 100%. The IC50 in experiment [2] is 3.3 nM; in experiment [3], above 100000 nM.
In the case of `COc1ccc(C2=CCC(N3CCN(Cc4ccccc4)CC3)CC2)cc1` (stereo not drawn) [Example 39, 1-[4-(4-Methoxyphenyl)-3-cyclohexen-1-yl]-4-(phenylmethyl)piperazine], the responders at 20 mg/kg in experiment [1] (20 & 30 mg/kg) was 92%. The results for the IC50 in experiment [2] and in experiment [3] were 0.9 nM and 1000 to 10000 nM, respectively.
For the molecule `Fc1ccc(C2=CCC(N3CCC(Cc4ccccc4)CC3)CC2)cc1` (stereo not drawn) [Example 47, 1-[4-(4-Fluorophenyl)-3-cyclohexen-1-yl]-4-(phenylmethyl)piperidine], in experiment [1], the responders at 40 mg/kg was 88%. The results for the IC50 in experiment [2] and in experiment [3] were 4 nM and 1000 to 10000 nM, respectively.
As to `COc1ccc2[nH]cc(C3=CCC(N4CCN(Cc5ccccc5)CC4)CC3)c2c1` (stereo not drawn) [Example 48, 5-Methoxy-3-[4-[4-(phenylmethyl)-1-piperazinyl]-1-cyclohexen-1-yl]-1H-indole], the responders at 40 mg/kg in experiment [1] came to 88%. Besides, the IC50 in experiment [2] is 6.2 nM; in experiment [3], 1000 to 10000 nM.
Take `Fc1ccc2[nH]cc(C3=CCC(N4CCC(Cc5ccccc5)CC4)CC3)c2c1` (stereo not drawn) [Example 51, 5-Fluoro-3-{4-[4-(phenylmethyl)-1-piperidinyl]-1-cyclohexen-1-yl]-1H-indole]: the responders at 20 mg/kg in experiment [1] (20 & 40 mg/kg) is 67%. Besides, the results for the IC50 in experiment [2] and in experiment [3] were 11.1 nM and 1000 to 10000 nM, respectively.
`C1=C(c2nc3ccccc3s2)CCC(N2CCN(Cc3ccccc3)CC2)C1` (stereo not drawn) [Example 38, 1-[4-(2-Benzothiazolyl)-3-cyclohexen-1-yl]-4-(phenylmethyl)piperazine]: the responders at 80 mg/kg in experiment [1] (80 mg/kg) was found to be 100%. The results for the IC50 in experiment [2] and in experiment [3] were 3.9 nM and 10000 to 50000 nM, respectively.
For `COc1cccc(CN2CCN(C3CC=C(c4ccc(F)cc4)CC3)CC2)c1` (stereo not drawn) [Example 60, 1-[(4-Fluorophenyl)-3-cyclohexen-1-yl]-4-[(3-methoxyphenyl)methyl]piperazine], in experiment [1], the responders at 10 mg/kg was found to be 50%. The IC50 is 5.2 nM in experiment [2] and 1000 to 10000 nM in experiment [3].
Turning to `Fc1ccc(CN2CCN(C3CC=C(c4ccc(C(F)(F)F)cc4)CC3)CC2)cc1` (stereo not drawn) [Example 42, 1-[(4-Fluorophenyl)methyl]-4-[4-[4-(trifluoromethyl)phenyl]-3-cyclohexen-1-yl]piperazine], the responders at 20 mg/kg in experiment [1] (20 mg/kg) was 100%. The figures for the IC50 in experiment [2] and in experiment [3] were 6.9 nM and above 100000 nM, respectively.
`FC(F)(F)c1ccc(C2=CCC(N3CCN(Cc4ccccc4)CC3)CC2)cc1` (stereo not drawn) [Example 40, 1-(Phenylmethyl)-4-[4-[4-(trifluoromethyl)phenyl]-3-cyclohexen-1-yl]piperazine]: the responders at 10 mg/kg in experiment [1] came out at 100%. Besides, the figures for the 50% inhibitory concentration (IC50) in experiment [2] and in experiment [3] were 4.5 nM and 10000 to 50000 nM, respectively.
Regarding `Fc1ccc(C2=CCC(N3CCN(Cc4ccncc4)CC3)CC2)cc1` (stereo not drawn) [Example 46, 1-[4-(4-Fluorophenyl)-3-cyclohexen-1-yl]-4-(4-pyridinylmethyl)piperazine], the responders at 20 mg/kg in experiment [1] (20 mg/kg) is 83%. The values for the IC50 in experiment [2] and in experiment [3] were 0.5 nM and 50000 to 100000 nM, respectively.
`Fc1ccc(CN2CCN(C3CC=C(c4ccc(F)cc4)CC3)CC2)cc1` (stereo not drawn) [Example 41, 1-[4-(4-Fluorophenyl)-3-cyclohexen-1-yl]-4-[(4-fluorophenyl)methyl]piperazine]: the responders at 20 mg/kg in experiment [1] (20 mg/kg) was 92%. In addition, the IC50 in experiment [2] is 0.6 nM; in experiment [3] it was 1000 to 10000 nM.
For the molecule `COc1cccc(CC2CCN(C3CC=C(c4ccc5c(c4)OCO5)CC3)CC2)c1` (stereo not drawn) [Example 52, 1-[4-(1,3-Benzodioxol-5-yl)-3-cyclohexen-1-yl]-4-[(3-methoxyphenyl)methyl]piperidine], in experiment [1], the responders at 10 mg/kg was found to be 38%. Also, the 50% inhibitory concentration (IC50) is 7.4 nM in experiment [2] and 1000 to 10000 nM in experiment [3].
